Data taken from patent US11040028B2, “Penicinotam derivative, preparation method and use thereof” (OCEAN UNIVERSITY OF CHINA, priority 2017, dated 2021).

Columns and labels:
Format in all cases: cell-based
[1] = test system: human hepatic stellate cells LX-2; experiment: Anti-fibrosis activity test: inhibition of proliferation of human hepatic stellate cells LX-2 (CCK-8); details: Homo sapiens, 48 h
How it was run: (§1)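 Cells were seeded at 2×10^4 cells/mL and allowed to adhere for 24 h at 37° C, 5% CO2, then exposed to graded compound concentrations in triplicate for 48 h. CCK-8 was added for 2 h, A450 was read, and IC50 was derived from inhibition rate = (1−Ai/Ao)×100%.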

[2] = test system: BHK-21 cells; experiment: Anti-fibrosis activity test: inhibition of BHK-21 cell proliferation (CCK-8); details: Mesocricetus auratus, BHK-21, 48 h
How it was run: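 Proliferation inhibition was read as CCK-8 absorbance at 450 nm (2-hour development) relative to untreated blank, with IC50 fitted from the curve. Before that, adhered cells (2×10^4 cells/mL, 24 hours) had 48 hours' treatment at several concentrations, in triplicate, at 37° C/5% CO2; pirfenidone was the reference.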

[3] = test system: human fibrosarcoma cells HT-1080; experiment: Anti-fibrosis activity test: inhibition of proliferation of human fibrosarcoma cells HT-1080 (CCK-8); details: Homo sapiens, HT-1080, 48 h
How it was run: as §1

[4] = test system: mouse macrophages (RAW264.7); experiment: Lipopolysaccharide-induced NO secretion in macrophages (Griess); details: Mus musculus, RAW264.7, 24 h, RAW264.7, LPS 1 μg/ml, a/b isomers given as first/second symbol, read-out: IC50 (μM), inhibition of lipopolysaccharide-induced NO secretion in macrophages
How it was run: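 RAW264.7 cells in DMEM with 10% FBS were treated with test compounds at several concentrations, then stimulated with LPS (1 μg/ml) for 24 hours. Nitrite in the supernatant was measured by Griess reaction at 548 nm, and percent inhibition was calculated against blank-medium controls.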

[5] = test system: human embryonic lung fibroblast IMR-90; experiment: Anti-fibrosis activity test: inhibition of proliferation of human embryonic lung fibroblast IMR-90 (CCK-8)
How it was run: as §1

[6] = test system: cardiac fibroblast RAT-iCell-C002; experiment: Anti-fibrosis activity test: inhibition of proliferation of cardiac fibroblast RAT-iCell-C002 (CCK-8); details: Cardiac fibroblast, 48 h
How it was run: as §1

[7] = test system: human dermal fibroblasts CCC-ESF-1; experiment: Anti-fibrosis activity test: inhibition of proliferation of human dermal fibroblasts CCC-ESF-1 (CCK-8); details: Fibroblast
How it was run: as §1

[8] = test system: human lung fibroblasts HFL1; experiment: Anti-fibrosis activity test: inhibition of proliferation of human lung fibroblasts HFL1 (CCK-8); details: Homo sapiens, HFL1, 48 h
How it was run: as §1

[9] = human hepatic stellate cells LX-2, CCK-8, 48 hours
[10] = CCK-8, 48 hours after administration
[11] = human fibrosarcoma cells HT-1080, CCK-8, 48 hours
[12] = human embryonic lung fibroblast IMR-90, CCK-8, 48 hours
[13] = cardiac fibroblast RAT-iCell-C002, CCK-8, 48 hours
[14] = human dermal fibroblasts CCC-ESF-1, CCK-8, 48 hours
[15] = human lung fibroblasts HFL1, CCK-8, 48 hours
[16] = Homo sapiens, IMR-90 cells, 48 h, CCK-8
[17] = Homo sapiens, CCC-ESF-1 cells, 48 h, CCK-8

`Cn1c2c(c(=O)c3cc(F)c(N4CCNCC4)cc31)C(=O)n1cccc1-2` [Compound 361a, 7-Fluoro-4-methyl-6-(piperazin-1-yl)-9H-pyrrolizino[1,2-b]quinoline-9,10(4H)-dione] was tested, and the IC50 [1, 9] was 0.05 to 5 mM, the IC50 [2, 10] was 0.05 to 5 mM and the IC50 [3, 11] was < 0.05 mM. The IC50 [4] was 1 to 10 µM, the IC50 [5, 12] was 0.05 to 5 mM and the IC50 [6, 13] was 0.05 to 5 mM. It also gave an IC50 [7, 14] of 0.05 to 5 mM and an IC50 [8, 15] of 0.05 to 5 mM.

With `O=C1c2c(nc3cc(F)ccc3c2OCc2ccc(F)cc2)-c2cccn21` [Compound 490b, 6-fluoro-9-((4-fluorobenzyl)oxy)-10H-pyrrolizino[1,2-b]quinolin-10-one] the IC50 [1, 9] was 0.05 to 5 mM, the IC50 [2, 10] was 0.05 to 5 mM and the IC50 [3, 11] was 0.05 to 5 mM. It also gave an IC50 [4] of 1 to 10 µM, an IC50 [5, 12] of 0.05 to 5 mM and an IC50 [6, 13] of 0.05 to 5 mM. It also gave an IC50 [7, 14] of 0.05 to 5 mM and an IC50 [8, 15] of 0.05 to 5 mM.

With `O=C1c2c([nH]c3cccc(O)c3c2=O)-c2cccn21` [Compound 470a, 8-Hydroxy-9H-pyrrolizino[1,2-b]quinoline-9,10(4H)-dione] the IC50 [1, 9] was 0.05 to 5 mM, the IC50 [2, 10] was 0.05 to 5 mM and the IC50 [3, 11] was 0.05 to 5 mM. It also gave an IC50 [4] of 0.1 to 1 µM, an IC50 [5, 12] of 0.05 to 5 mM and an IC50 [6, 13] of 0.05 to 5 mM. The IC50 [7, 14] was 0.05 to 5 mM and the IC50 [8, 15] was 0.05 to 5 mM.

Work on `O=C1c2c(c(=O)c3ccccc3n2CCN2CCNCC2)-c2cccn21` [Compound 792a, 6-(2-(Piperazin-1-yl)ethyl)-5H-pyrrolizino[2,1-b]quinoline-5,11(6H)-dione] yielded an IC50 ([1]; LX-2, 48 h, LX-2 cells, CCK-8) of 0.05 to 5 mM, an IC50 ([2]; 48 h, CCK-8) of 0.05 to 5 mM and an IC50 ([3]; HT-1080 cells, 48 h, CCK-8) of 0.05 to 5 mM. For the same molecule, the IC50 [4] was 0.1 to 1 µM, the IC50 [5, 16] was 0.05 to 5 mM and the IC50 ([6]; RAT-iCell-C002 cells, CCK-8) was 0.05 to 5 mM. The IC50 [7, 17] was < 0.05 mM and the IC50 ([8]; HFL1 cells, 48 h, CCK-8) was 0.05 to 5 mM.

In the case of `N#Cc1cccc2c(=O)c3c(n(Cc4ccccc4F)c12)-c1cccn1C3=O` [Compound 456a, 4-(2-Fluorobenzyl)-9,10-dioxo-4,10-dihydro-9H-pyrrolizino[1,2-b]quinoline-5-carbonitrile], the IC50 [1, 9] was < 0.05 mM, the IC50 [2, 10] was 0.05 to 5 mM and the IC50 [3, 11] was 0.05 to 5 mM. It also gave an IC50 [4] of 1 to 10 µM, an IC50 [5, 12] of 0.05 to 5 mM and an IC50 [6, 13] of 0.05 to 5 mM. For the same molecule, the IC50 [7, 14] was 0.05 to 5 mM and the IC50 [8, 15] was 0.05 to 5 mM.

In the case of `O=C1c2c([nH]c3cc(N4CCNCC4)c(C(F)(F)F)cc3c2=O)-c2cccn21` [Compound 397a, 6-(Piperazin-1-yl)-7-(trifluoromethyl)-9H-pyrrolizino[1,2-b]quinoline-9,10(4H)-dione], the IC50 [1, 9] was 0.05 to 5 mM, the IC50 [2, 10] was 0.05 to 5 mM and the IC50 [3, 11] was 0.05 to 5 mM. It also gave an IC50 [4] of 0.1 to 1 µM, an IC50 [5, 12] of 0.05 to 5 mM and an IC50 [6, 13] of 0.05 to 5 mM. The IC50 [7, 14] was 0.05 to 5 mM and the IC50 [8, 15] was 0.05 to 5 mM.

Work on `N#Cc1ccc2c(c1)c(=O)c1c(n2-c2ccc(Cl)cc2)-c2cccn2C1=O` [Compound 210a, 4-(4-Chlorophenyl)-9,10-dioxo-4,10-dihydro-9H-pyrrolizino[1,2-b]quinoline-7-carbonitrile] yielded an IC50 [1, 9] of 0.05 to 5 mM, an IC50 [2, 10] of 0.05 to 5 mM and an IC50 [3, 11] of 0.05 to 5 mM. It also gave an IC50 [4] of 1 to 10 µM, an IC50 [5, 12] of 0.05 to 5 mM and an IC50 [6, 13] of 0.05 to 5 mM. For the same molecule, the IC50 [7, 14] was 0.05 to 5 mM and the IC50 [8, 15] was 0.05 to 5 mM.

`O=C1c2nc3ccccc3c(OCCCCN3CCOCC3)c2-c2cccn21` [Compound 789b, 11-(4-morpholinobutoxy)-5H-pyrrolizino[2,1-b]quinolin-5-one] gave an IC50 ([1]; LX-2, 48 h, LX-2 cells, CCK-8) of 0.05 to 5 mM, an IC50 ([2]; 48 h, CCK-8) of 0.05 to 5 mM and an IC50 ([3]; HT-1080 cells, 48 h, CCK-8) of 0.05 to 5 mM. It also gave an IC50 [4] of 1 to 10 µM, an IC50 [5, 16] of 0.05 to 5 mM and an IC50 ([6]; RAT-iCell-C002 cells, CCK-8) of 0.05 to 5 mM. For the same molecule, the IC50 [7, 17] was 0.05 to 5 mM and the IC50 ([8]; HFL1 cells, 48 h, CCK-8) was 0.05 to 5 mM.

`O=C(O)Cn1c2c(c(=O)c3cc(F)ccc31)C(=O)n1cccc1-2` [Compound 153a, 2-(7-Fluoro-9,10-dioxo-9H-pyrrolizino[1,2-b]quinolin-4(10H)-yl)acetic acid] was tested, and the IC50 [1, 9] was < 0.05 mM, the IC50 [2, 10] was < 0.05 mM and the IC50 [3, 11] was 0.05 to 5 mM. It also gave an IC50 [4] of 1 to 10 µM, an IC50 [5, 12] of 0.05 to 5 mM and an IC50 [6, 13] of 0.05 to 5 mM. The IC50 [7, 14] was 0.05 to 5 mM and the IC50 [8, 15] was 0.05 to 5 mM.

With `O=C1c2c(c(=O)c3ccccc3n2CCCN2CCCCC2)-c2cccn21` [Compound 786a, 6-(3-(Piperidin-1-yl)propyl)-5H-pyrrolizino[2,1-b]quinoline-5,11(6H)-dione] the IC50 ([1]; LX-2, 48 h, LX-2 cells, CCK-8) was 0.05 to 5 mM, the IC50 ([2]; 48 h, CCK-8) was 0.05 to 5 mM and the IC50 ([3]; HT-1080 cells, 48 h, CCK-8) was 0.05 to 5 mM. For the same molecule, the IC50 [4] was 1 to 10 µM, the IC50 [5, 16] was 0.05 to 5 mM and the IC50 ([6]; RAT-iCell-C002 cells, CCK-8) was 0.05 to 5 mM. It also gave an IC50 [7, 17] of 0.05 to 5 mM and an IC50 ([8]; HFL1 cells, 48 h, CCK-8) of 0.05 to 5 mM.
